According to US10239894B2, “Inhibitors of indoleamine 2,3-dioxygenase” (GLAXOSMITHKLINE INTELLECTUAL PROPERTY DEVELOPMENT LIMITED, priority 2015, dated 2019):

Legend:
Recombinant human IDO1 = biological target: T1, Recombinant human IDO1 (Homo sapiens, UniProt P14902); assay: IDOi enzyme assay (absorbance readout of NFK formation at 320 nm); type: biochemical; conditions: recombinant human IDO1, 2 mM D-tryptophan, 30 min preincubation; read-out: pXC50 enzyme (converted)
T1 construct: made in house; host or cells: E. coli

[1] = biological target: T2, indoleamine 2, 3-dioxygenase (IDO1) in IFN-γ stimulated HeLa cells (Homo sapiens, UniProt P14902); assay: HeLa IDOi assay (kynurenine by mass spectrometry); type: cell-based; conditions: HeLa cells stimulated with IFN-γ, 2 days, kynurenine by MS; read-out: pXC50 HeLa (converted)
T2 construct: host or cells: HeLa cells stimulated with IFN-γ

[2] = biological target: T3, indoleamine 2, 3-dioxygenase (IDO1) in IFN-γ/LPS stimulated human peripheral blood mononuclear cells (PBMC) (Homo sapiens, UniProt P14902); assay: PBMC IDOi assay (kynurenine by mass spectrometry); type: cell-based; conditions: human PBMC stimulated with IFN-γ and LPS, 2 days, kynurenine by MS; read-out: pXC50 PBMC (converted)
T3 construct: host or cells: human PBMC stimulated with IFN-γ and LPS

[3] = biological target: T4, indoleamine 2, 3-dioxygenase (IDO1) in IFN-γ/LPS stimulated human monocyte-derived dendritic cells (MDDC) (Homo sapiens, UniProt P14902); assay: IDOi MDDC assay (kynurenine by mass spectrometry); type: cell-based; conditions: human MDDC stimulated with IFN-γ and LPS, 2 days, kynurenine by MS; read-out: pXC50 MDDC (converted)
T4 construct: host or cells: human monocyte-derived dendritic cells stimulated with IFN-γ and LPS

[4] = In vivo pharmacokinetics, rat clearance; conditions: plasma, intravenous, male nonfasted Wistar Han rats, doses 1 mg/kg i.v. and 5 mg/kg p.o.
Method: In vivo pharmacokinetic methods, rat: Male nonfasted Wistar Han rats (n=3) received test article at doses of 1 mg/kg i.v. (1 mL/kg) and 5 mg/kg p.o. (5 ml/kg) formulated in a DMSO/solutol/10% hydroxyl-propyl β cyclodextrin (10:10:80) dosing vehicle. For all animals,food and water was provided ad libitum. Blood samples were withdrawn from a surgically-implanted venous cannula at timed intervals for 24 h after dose administration, treated with EDTA, and centrifuged to harvest plasma for LC/MS/MS analysis. Plasma concentration-time data for individual rats were analyzed by noncompartmental analysis using the Phoenix™ WinNonlin® (version 6.2.1, Pharsight Corp., St. Louis, Mo.) software to generate pharmacokinetic parameter estimates.

[5] = In vivo pharmacokinetics, mouse clearance

T3 sequence (P14902 whole entry): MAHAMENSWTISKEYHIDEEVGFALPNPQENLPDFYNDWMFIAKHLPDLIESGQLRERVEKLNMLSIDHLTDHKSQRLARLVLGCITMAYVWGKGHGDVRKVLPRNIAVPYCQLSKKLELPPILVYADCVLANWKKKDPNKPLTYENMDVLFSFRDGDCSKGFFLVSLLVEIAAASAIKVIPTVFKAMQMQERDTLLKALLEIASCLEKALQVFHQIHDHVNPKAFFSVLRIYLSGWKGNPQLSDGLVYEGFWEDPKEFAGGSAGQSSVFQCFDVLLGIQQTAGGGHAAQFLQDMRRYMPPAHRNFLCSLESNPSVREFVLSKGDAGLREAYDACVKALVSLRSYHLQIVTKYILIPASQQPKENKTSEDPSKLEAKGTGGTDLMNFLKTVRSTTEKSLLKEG
T4 sequence (P14902 whole entry): as above
T1 sequence (P14902 whole entry): as above
T2 sequence (P14902 whole entry): as above

SMILES | IC50 (Recombinant human IDO1) [nM] | IC50 [1] [nM] | IC50 [2] [nM] | IC50 [3] [nM] | clearance [4] [mL/min/kg] | clearance [5] [mL/min/kg]
O=C(NCCNc1nonc1C(=NO)Nc1ccc(F)c(Br)c1)c1ccc2c(c1)B(O)OC=C2 [Compound 3, N-(2-((4-(N-(3-Bromo-4-fluorophenyl)-N′-hydroxycarbamimidoyl)-1,2,5-oxadiazol-3-yl)amino)ethyl)-1-hydroxy-1H-benzo[c][1,2]oxaborinine-7-carboxamide] | 79.4 | 1260 | 316 | 2000 | 0.8 | –
ON=C(Nc1ccc(F)c(Br)c1)c1nonc1Nc1ccc(B(O)O)cc1 [Compound 10] | 25.1 | 158 | 200 | 631 | 220 | –
O=C(NCCNc1nonc1C(=NO)Nc1ccc(F)c(Br)c1)c1cccc2c1B(O)OCC2 [Compound 1, N-(2-((4-(N-(3-bromo-4-fluorophenyl)-N′-hydroxycarbamimidoyl)-1,2,5-oxadiazol-3-yl)amino)ethyl)-1-hydroxy-3,4-dihydro-1H-benzo[c][1,2]oxaborinine-8-carboxamide] | 100 | 100 | 126 | 158 | 0.8 | 0.6
O=C(CN1CCOB2OCc3cccc1c32)NCCNc1nonc1C(=NO)Nc1ccc(F)c(Br)c1 [Compound 7] | 100 | 631 | 398 | – | 180 | –
CN(Cc1cccc2c1COB2O)C(=O)CNc1nonc1C(=NO)Nc1ccc(F)c(Br)c1 [Compound 5, 2-((4-(N-(3-Bromo-4-fluorophenyl)-N′-hydroxycarbamimidoyl)-1,2,5-oxadiazol-3-yl)amino)-N-((1-hydroxy-1,3-dihydrobenzo[c][1,2]oxaborol-4-yl)methyl)-N-methylacetamide 2,2,2-trifluoroacetate] | 100 | 200 | 158 | 126 | 2.8 | 3.1
O=C(NCCNc1nonc1C(=NO)Nc1ccc(F)c(Br)c1)c1cccc2c1B(O)OC2 [Compound 6, N-(2-((4-(N-(3-Bromo-4-fluorophenyl)-N′-hydroxycarbamimidoyl)-1,2,5-oxadiazol-3-yl)amino)ethyl)-1-hydroxy-1,3-dihydrobenzo[c][1,2]oxaborole-7-carboxamide] | 79.4 | 158 | 100 | 100 | 4.8 | 7.1
O=C(NCCNc1nonc1C(=NO)Nc1ccc(F)c(Br)c1)c1ccc2c(c1)B(O)OCC2 [Compound 4, N-(2-((4-(N-(3-Bromo-4-fluorophenyl)-N′-hydroxycarbamimidoyl)-1,2,5-oxadiazol-3-yl)amino)ethyl)-1-hydroxy-3,4-dihydro-1H-benzo[c][1,2]oxaborinine-7-carboxamide] | 50.1 | 158 | 100 | 1260 | 2 | –
NS(=O)(=O)NCCNc1nonc1C(=NO)Nc1ccc(F)c(Br)c1 [Compound 11, reference compound] | – | – | – | – | 50.6 | 37.2
O=C(NCCNc1nonc1C(=NO)Nc1ccc(F)c(Br)c1)c1cccc2c1B(O)OC=C2 [Compound 2, N-(2-((4-(N-(3-Bromo-4-fluorophenyl)-N′-hydroxycarbamimidoyl)-1,2,5-oxadiazol-3-yl)amino)ethyl)-1-hydroxy-1H-benzo[c][1,2]oxaborinine-8-carboxamide] | 200 | 631 | 501 | – | – | –
O=C(NCCNc1nonc1C(=NO)Nc1ccc(F)c(Br)c1)c1ccc2c(c1)COB2O [Compound 8] | 79.4 | 158 | 50.1 | 79.4 | 74.9 | –
O=C(NCCNc1nonc1C(=NO)Nc1ccc(F)c(Br)c1)Nc1ccc(B(O)O)cc1 [Compound 9] | 31.6 | 100 | 31.6 | 63.1 | 238 | –
